According to ChEMBL document CHEMBL1137583 (Bioorg Med Chem Lett, 2007):

Key:
[1] = target: Melanin-concentrating hormone receptor 1 (Homo sapiens, UniProt Q99705); experiment: Inhibition of 125I-MCH binding to human MCH-R1 expressed in CHO cell membranes
Mus musculus = experiment: Inhibition of ex vivo MCH-R1 binding following 30 mg/kg peroral dose in mice after 6hr; type: functional; details: route oral
[2] = AUC (0-6hr) in rats following 10 mg/kg peroral dose; type: ADME, organism-based; set-up: time < 6 hr, dose 10 mg/kg, route oral; details: rat, plasma, po

Sequence of Melanin-concentrating hormone receptor 1 (Q99705 whole entry): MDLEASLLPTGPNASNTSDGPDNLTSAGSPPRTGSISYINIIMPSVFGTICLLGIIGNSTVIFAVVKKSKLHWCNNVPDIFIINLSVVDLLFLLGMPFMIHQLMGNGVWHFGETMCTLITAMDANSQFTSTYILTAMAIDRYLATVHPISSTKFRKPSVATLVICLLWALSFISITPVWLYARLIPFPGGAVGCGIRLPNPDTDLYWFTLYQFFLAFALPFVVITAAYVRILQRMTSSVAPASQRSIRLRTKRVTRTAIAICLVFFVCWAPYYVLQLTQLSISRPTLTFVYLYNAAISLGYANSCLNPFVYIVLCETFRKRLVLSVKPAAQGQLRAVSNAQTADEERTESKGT

Ki [1] [nM]	AUC(0-t) at 6 h [2] [ng·h/mL]	Structure (SMILES)	inhibition in vivo at 30 mg/kg (Mus musculus) [%]
340		CN1CCN(CCCN(C(=O)Nc2ccc(F)c(Cl)c2)C2CCc3cc(C#N)ccc3C2)CC1 (centres undefined)	
4		CN1CCN(CCCN(C(=O)Nc2ccc(F)c(Cl)c2)[C@@H]2CC[C@]3(c4cccc(C#N)c4)C[C@@H]3C2)CC1	
3000		CN1CCN(CCCN(C(=O)Nc2ccc(F)c(Cl)c2)C2CCc3ccc(S(=O)(=O)N(C)C)cc3C2)CC1 (centres undefined)	
1300		CN1CCN(CCCN(C(=O)Nc2ccc(F)c(Cl)c2)C2CCc3ccc(S(C)(=O)=O)cc3C2)CC1 (centres undefined)	
190		COc1ccc2c(c1)CCC(N(CCCN1CCN(C)CC1)C(=O)Nc1ccc(F)c(Cl)c1)C2 (centres undefined)	
380		CN1CCN(CCCN(C(=O)Nc2ccc(F)c(Cl)c2)C2CCc3ccccc3C2)CC1 (centres undefined)	
	195	CC(=O)Nc1ccc2c(c1)CC(N(CCCN1CCN(C)CC1)C(=O)Nc1ccc(F)c(Cl)c1)CC2 (centres undefined)	23
3000		CNS(=O)(=O)c1ccc2c(c1)CC(N(CCCN1CCN(C)CC1)C(=O)Nc1ccc(F)c(Cl)c1)CC2 (centres undefined)	
8.5	642	CN1CCN(CCCN(C(=O)Nc2ccc(F)c(Cl)c2)C2CCc3ccc(C#N)cc3C2)CC1 (centres undefined)	84
160		CCNC(=O)Nc1ccc2c(c1)CC(N(CCCN1CCN(C)CC1)C(=O)Nc1ccc(F)c(Cl)c1)CC2 (centres undefined)	
260		CN1CCN(CCCN(C(=O)Nc2ccc(F)c(Cl)c2)C2CCc3ccc(N)cc3C2)CC1 (centres undefined)	
